Experimental data: patent publication US7871797B2, “DNA encoding a bacterial protease for degrading gelatin and collagen” (Jellice Co., Ltd., priority 2003, dated 2011)
Like-named read-outs stand apart in the source and are kept apart here. Starred links: 1 amine or outer side, 2 acyl side, 3 side chain; linkers in the order of their positions; H or OH if unused. Non-standard residues stand in square brackets, D forms with d. No end group written: not given here. *: point of attachment. K(DNP) = O=C([C@H](CCCCNc1ccc([N+](=O)[O-])cc1[N+](=O)[O-])N[*:1])[*:2]; Dnp = O=[N+]([O-])c1ccc(*)c([N+](=O)[O-])c1; Benzoyl(2-NHMe) = CNc1ccccc1C(=O)*

Legend:
[1] = system: enzyme (protease) of the present invention; type: biochemical, Aureobacterium sp. MIM-CG-9535-I
Description: Reagents in the form of o-phenanthroline, EDTA, EGTA, L-cysteine, 2-mercaptoethanol, N-ethylmaleimide, antipain, leupepsin, E-64, phosphoramidon, trypsin inhibitor, chymostatin, TCPK, PMSF, and iodoacetamide were employed as inhibitors.
Each of the reagents was mixed with the synthetic substrate after which the enzyme was added. The degradation reaction was conducted for 30 min at 37° C. and the enzymatic activity was measured. Adopting the case where no inhibitor was added as 100 percent, the relative residual enzymatic activity was calculated.

[2] = system: protease described in Japanese Patent Application Publication No. 2000-102381; settings: protease of JP 2000-102381; cited from earlier work
[3] = system: enzyme (protease) of the present invention; test: Cutting activity (specific protease activity) on fluorescence-labeled synthetic peptides; type: biochemical, Aureobacterium sp. MIM-CG-9535-I; settings: for Present or Absent of Specific degradation activity: fluorescence-labeled peptides with varied peptide chain; for Protease cutting activity (degradation of synthetic substrate), Enzyme of the present invention: 100 microgram labeled peptide, 1 microgram protease, 10 min at 37° C. in the dark
Text: Fluorescence-labeled peptides having the amino acid sequences denoted by (1) to (3) below are synthesized by the usual methods. Specifically, a fluorescent substance is attached as label on one side of the cutting site of a peptide having one of the amino acid sequences listed below, and a light-extinguishing substance is attached on the other side. Only when the labeled peptide has been cleaved is florescence detected. No fluorescence is detected even when employed as substrate for an enzyme not having cutting activity on the amino acid sequences given below. The substances used to label the peptide are not specifically limited other than that they be fluorescent and light-extinguishing substances. For example, N-methylanthranic acid can be employed as the fluorescent substance, and a dinitrophenyl group can be employed as the light-extinguishing substance.
To determine specific protease activity in the present invention, a fluorescence-labeled synthetic peptide, obtained by labeling a peptide having one of the amino acid sequences denoted by (1) to (3) above with N-methylanthranic acid on one end and labeling the other end thereof with a dinitrophenyl group, is employed as substrate and incubated with a prescribed quantity of enzyme for a prescribed period in the dark. Subsequently, the product is separated by reverse-phase chromatography and the fluorescent intensity of the separated product is measured to determine cutting activity.
Nma/Dnp florescence-labeled peptides (excitation wavelength 340 nm, fluorescence wavelength 440 nm) having the amino acid sequences of (1) to (3) below labeled on one end with N-methylanthranic acid and on the other end with a dinitrophenyl group were synthesized with a peptide synthesizer by the usual method.
Employing as substrate one of the fluorescence-labeled synthetic peptides obtained, cutting activity was measured under the following conditions.
(§1) A 100 microgram quantity of fluorescence-labeled synthetic peptide was adjusted to 0.2 mg/mL with 10 mM Tris buffer solution, 1 microgram of the above protease of the present invention was added, and the mixture was incubated for 10 min at 37° C. in the dark. The enzyme reaction solution obtained was subjected to reverse-phase HPLC using TSKgel® ODS-80Ts (silica-based, reverse phase chromatography resin; Tosoh Corp.) from 0.1 percent TFA to 80 percent acetonitrile-0.1 percent TFA at a flow rate of 1 mL/min and a gradient of 40 min to separate the degraded peptides. Employing A215 and a fluorescence spectrometer for high-performance liquid chromatography made by Shimatsu Corp., fluorescent intensity was measured at an excitation wavelength of 340 nm and a fluorescence wavelength of 440 nm.
The structure of the peptide chain was varied in the amino acid sequence of (1) above, fluorescence-labeled synthetic peptides were synthesized in the same manner as above, and cutting activity was measured in the same manner as above to verify the amino acids required for the above specific degradation activity.
Target sequence in this assay (as listed by the source): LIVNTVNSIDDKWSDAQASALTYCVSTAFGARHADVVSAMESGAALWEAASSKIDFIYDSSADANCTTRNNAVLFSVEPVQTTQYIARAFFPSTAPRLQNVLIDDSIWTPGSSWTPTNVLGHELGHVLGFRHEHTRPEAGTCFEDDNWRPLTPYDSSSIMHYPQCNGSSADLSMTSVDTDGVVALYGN

[4] = system: protease described in Japanese Patent Application Publication No. 2000-102381; settings: protease of JP 2000-102381; cited from earlier work; remark: listed apart in the source
[5] = system: enzyme described in Japanese Patent Application Publication No. 2000-102381; test: Cutting activity on fluorescence-labeled synthetic peptides, comparison enzyme; type: biochemical, Aureobacterium; settings: identical conditions: 10 min at 37° C. in the dark
Description: as §1
For comparison, the cutting activity of the enzyme described in the above-cited patent application publication (Japanese Patent Application Publication No. 2000-102381) was measured under identical conditions.

[6] = inhibitor 20 mM, 30 min at 37° C., no inhibitor = 100 percent
[7] = inhibitor 0.05 mM, 30 min at 37° C., no inhibitor = 100 percent

OCCS [2-ME, 2-mercaptoethanol]
Residual activity (%) [1, 6]: 73%

CC(C)C[C@H](NC(=O)[C@@H](NC(=O)N[C@@H](Cc1ccccc1)C(=O)O)[C@@H]1CCN=C(N)N1)C(=O)N[C@H](C=O)Cc1ccccc1 [Chymostatin, chymostatin]
Residual activity (%) [1, 7]: 85%

CC(C)C[C@H](NC(=O)[C@H]1O[C@@H]1C(=O)O)C(=O)NCCCCN=C(N)N [E-64]
Residual activity (%) [1, 7]: 95%

O=C(O)CN(CCN(CC(=O)O)CC(=O)O)CC(=O)O [EDTA, ethylenediamine tetraacetic acid]
Enzyme inhibition [2]: not
Residual activity (%) [1]: 93%

O=C(O)CN(CCOCCOCCN(CC(=O)O)CC(=O)O)CC(=O)O [EGTA]
Residual activity (%) ([1]; inhibitor 10 mM, 30 min at 37° C., no inhibitor = 100 percent): 68%

NC(=O)CI [Iodoacetamide, iodoacetamide]
Enzyme inhibition [2]: not
Residual activity (%) [1, 6]: 77%

N[C@@H](CS)C(=O)O [L-Cys, L-cysteine]
Enzyme inhibition [2]: inhibited
Residual activity (%) [1, 6]: 0%

CC(=O)N[C@@H](CC(C)C)C(=O)N[C@@H](CC(C)C)C(=O)N[C@H](C=O)CCCNC(=N)N [Leupepsin, leupepsin]
Residual activity (%) [1, 7]: 92%

CCN1C(=O)C=CC1=O [N-Ethylmaleimide, N-ethylmaleimide]
Enzyme inhibition [2]: not
Residual activity (%) [1, 6]: 79%

O=S(=O)(F)Cc1ccccc1 [PMSF, phenylmethanesulfonyl fluoride]
Enzyme inhibition [2]: not
Residual activity (%) [1, 6]: 84%

CC(C)C[C@H](NP(=O)(O)O[C@@H]1O[C@@H](C)[C@H](O)[C@@H](O)[C@H]1O)C(=O)N[C@@H](Cc1c[nH]c2ccccc12)C(=O)O [Phosphoramidon, phosphoramidon]
Residual activity (%) [1, 7]: 91%

Cc1ccc(S(=O)(=O)N[C@@H](Cc2ccccc2)C(=O)CCl)cc1 [TCPK]
Residual activity (%) ([1]; inhibitor 0.1 mM, 30 min at 37° C., no inhibitor = 100 percent): 95%

c1cnc2c(c1)ccc1cccnc12 [o-Phenanthroline, o-phenanthroline]
Enzyme inhibition [2]: inhibited
Residual activity (%) ([1]; inhibitor 2 mM, 30 min at 37° C., no inhibitor = 100 percent): 0%

AG FAGP: fluorescence-labeled synthetic peptide, single letter code (AGFAGP; also: fluorescence label, site not given here)
Present or Absent of Specific degradation activity [3]: Absent

DNP-Gln-Gly-Ile-Ala-Gly-Gln-D-Arg (Dnp-QGIAGQ[dR]) [synthetic substrate]
Degradation activity [4]: no degradation activity

DNP-Pro-Gln-Gly-Ile-Ala-Gly-Gln-D-Arg (Dnp-PQGIAGQ[dR]) [synthetic collagenase substrate]
Degradation activity [4]: only slight degradation activity

G FAGP: fluorescence-labeled synthetic peptide, single letter code (GFAGP; also: fluorescence label, site not given here)
Present or Absent of Specific degradation activity [3]: Absent

GPAG F: fluorescence-labeled synthetic peptide, single letter code (GPAGF; also: fluorescence label, site not given here)
Present or Absent of Specific degradation activity [3]: Absent

GPAG FA: fluorescence-labeled synthetic peptide, single letter code (GPAGFA; also: fluorescence label, site not given here)
Present or Absent of Specific degradation activity [3]: Absent

GPAG FAG: fluorescence-labeled synthetic peptide, single letter code (GPAGFAG; also: fluorescence label, site not given here)
Present or Absent of Specific degradation activity [3]: Absent

Nma-Gly-Pro-Ala-Gly-Phe-Ala-Gly-Pro-Lys-(DNP)r-NH2 ({Benzoyl(2-NHMe)}-GPAGFAGP-{K(DNP)-dR-NH2}; SMILES CNc1ccccc1C(=O)NCC(=O)N1CCC[C@H]1C(=O)N[C@@H](C)C(=O)NCC(=O)N[C@@H](Cc1ccccc1)C(=O)N[C@@H](C)C(=O)NCC(=O)N1CCC[C@H]1C(=O)N[C@@H](CCCCNc1ccc([N+](=O)[O-])cc1[N+](=O)[O-])C(=O)N[C@H](CCCNC(=N)N)C(N)=O) [Gly-Pro-Ala-Gly-↓-Phe-Ala-Gly-Pro, fluorescence-labeled synthetic substrate]
Protease cutting activity (degradation of synthetic substrate), Enzyme of the present invention [3]: (◯) Degrades
Present or Absent of Specific degradation activity [3]: Present
Protease cutting activity (degradation of synthetic substrate), Enzyme of patent application publication [5]: (X) Does not degrade

Nma-Gly-Pro-Gln-Gly-Phe-Gln-Gly-Pro-Lys-(DNP)r-NH2 ({Benzoyl(2-NHMe)}-GPQGFQGP-{K(DNP)-dR-NH2}; SMILES CNc1ccccc1C(=O)NCC(=O)N1CCC[C@H]1C(=O)N[C@@H](CCC(N)=O)C(=O)NCC(=O)N[C@@H](Cc1ccccc1)C(=O)N[C@@H](CCC(N)=O)C(=O)NCC(=O)N1CCC[C@H]1C(=O)N[C@@H](CCCCNc1ccc([N+](=O)[O-])cc1[N+](=O)[O-])C(=O)N[C@H](CCCNC(=N)N)C(N)=O) [Gly-Pro-Gln-Gly-↓-Phe-Gln-Gly-Pro, fluorescence-labeled synthetic substrate]
Protease cutting activity (degradation of synthetic substrate), Enzyme of the present invention [3]: (◯) Degrades
Protease cutting activity (degradation of synthetic substrate), Enzyme of patent application publication [5]: (X) Does not degrade

Nma-Thr-Gln-Ser-Leu-Val-Thr-Pro-Lys-(DNP)r-NH2 [Gln-Thr-Gln-Ser-↓-Leu-Val-Thr-Pro]
Protease cutting activity (degradation of synthetic substrate), Enzyme of the present invention [3]: (◯) Degrades
Protease cutting activity (degradation of synthetic substrate), Enzyme of patent application publication [5]: (X) Does not degrade

Pro-Ala-Gly-Phe-Ala-Gly-Pro (PAGFAGP; also: fluorescent label, type and site not given here) [PAG FAGP, fluorescence-labeled synthetic peptide, single letter code]
Present or Absent of Specific degradation activity [3]: Present

Pro-Gln-Gly-Ile-Ala-Gly-Gln (PQGIAGQ; also: fluorescence label, site not given here) [Pro-Gln-Gly-↓-Ile-Ala-Gly-Gln, fluorescence-labeled synthetic substrate degraded by the enzyme of the earlier publication]
Protease cutting activity (degradation of synthetic substrate), Enzyme of the present invention [3]: (X) Does not degrade
Protease cutting activity (degradation of synthetic substrate), Enzyme of patent application publication [5]: (◯) Degrades

casein
Degradation activity [4]: exhibits degradation activity
